Source: patent US6228363A, “Peptides for the treatment of systemic lupus erythematosus” (Hadasit Medical Research Services & Development Company Ltd., priority 1997, dated 2001)

What was measured:
[1] = system: murine urinary immunoglobulins; test: Binding of murine urinary immunoglobulins, direct binding ELISA; design: species or system mice; conditions: pooled urine
Method: (§1) Wells were coated with 10 μg/ml of the peptides, blocked with 1% BSA (bovine serum albumin) in PBS (pH 7,4), reacted with appropriately diluted serum or urine samples or monoclonal antibodies, incubated with anti-human or anti-mouse immunoglobulin enzyme conjugated to alkaline phosphatase and detected by addition of substrate (Sigma 100 Phosphatase Substrate Tablets) and color development using an Organon Teknika Microwell System spectrometer at wavelength of 405 nm.
Thus, pooled urine from at least 5 mice (either MRL/1pr/1pr or control mice, e.g. BALB/c) was added to wells coated with R38' (5200), R18 or DNA as described above and bound 5200 assayed by ELISA.
Binding of Murine Urinary Immunoglobulins To 5200
Each group is comprised of pooled urine.

[2] = system: C72 murine anti-DNA antibody; test: Competitive inhibition of C72 binding to 5200, ELISA; conditions: antibody incubated with inhibitor before ELISA
Method: Competitive Inhibition Assays:
In competitive inhibition assays, the antibodies were incubated with various concentrations of the inhibitor (for example: peptide, DNA, heparin) or with DNase for 45 minutes at room temperature and the remaining binding was then evaluated by ELISA as described heretofore.
% inhibition was computed as
O.D. binding without inhibitor-O.D. binding with inhibitor×100=%
inhibition O.D. binding without inhibitor
The binding of C72 to 5200 was tested before and after incubation with 5200, R38, R18, Heparin, DNA and DNase. […] The percent inhibition is the percent reduction of the O.D. after incubation with the inhibiting agent.

[3] = system: C72 murine anti-DNA antibody; test: Direct binding ELISA of C72 to laminin peptides; conditions: for binding of C72 murine anti-DNA antibody to peptide (FIG. 1): C72 conditioned medium in various dilutions in PBS; for C72 Binding: O.D. in a direct binding ELISA test after one (1) hour
Method: The C72 murine anti-DNA antibody has been derived from (NZBxNZW)F1 lupus mice by the hybridoma technique as described in Eilat D. et al J. Immunol. (1991) 147 361-368. The monoclonal anti-DNA antibodies DIL6 and B3 were derived from lupus patients by hybridoma technique as described in Ehrenstein M. R. et al J. Clin. Invest. (1994) 93 1787-1799 and Ehrenstein M. R. et al Kidney Inter. (1995) 48 705-711.
Anti-Peptide (Direct Binding) ELISA:
as §1
The interaction of the C72 murine anti-DNA antibody with laminin peptides was analyzed by ELISA as described above. The C72 conditioned medium was diluted in PBS in various dilutions.
The peptides of the present invention were tested for their ability to bind directly with C72 murine anti-DNA antibodies and B3 human anti-DNA antibodies according to the methods described hereinabove.

Row | Substance | Binding of murine urinary immunoglobulins to antigen ([1]; BALB/c mice) | Binding of murine urinary immunoglobulins to antigen ([1]; MRL/lpr/lpr mice) | inhibition of the binding of C72 to 5200 (FIG. 2) [2] | binding of C72 murine anti-DNA antibody to peptide (FIG. 1) [3] | C72 Binding [3]
1 | DNA [reference compound] | U.D. | U.D. | inhibition |  | 
2 | DNase |  |  | not |  | 
3 | KONCLSSRASFRGCVRNLRLSR (PHTHSTSADTNDPIYVGGYPAH; UniProt P19137 3011-3032, looked up, fragment) [Peptide R30, mouse laminin α chain residues 3011-3032] |  |  |  | binding | 0.75 O.D.
4 | RPVRHAQCRVCDGNSTNPRERH [Peptide R18, peptide from the N-terminal of mouse laminin α chain, residues 42-63] | U.D. | U.D. |  | not | 0.01 O.D.
5 | heparin |  |  | inhibition |  | 
